{"source": "patent US20110189161A1", "about": "“NUTRIGENOMICS METHODS AND COMPOSITIONS” (priority 2008, published 2011)", "key": {"[1]": {"tested_on": "patients receiving opiates for chronic non-malignant pain", "details": "concurrent treatment, author's clinical experience; cited from earlier work"}, "[2]": {"details": "oral oil-based paste, free access to food, three of six animals; cited from earlier work"}, "[3]": {"details": "with soya-lecithin, n-octanol-phosphate buffer; cited from earlier work"}, "paw edema by carrageenin": {"tested_on": "paw edema by carrageenin", "details": "topical 1% ointment, rats; cited from earlier work"}, "rat skin": {"tested_on": "rat skin", "details": "applied to rat skin; cited from earlier work"}, "[4]": {"details": "rats; cited from earlier work"}, "[5]": {"tested_on": "release of serotonin in the lateral hypothalamus", "details": "systemic administration, long lasting and dose dependent; cited from earlier work"}, "[6]": {"tested_on": "rat caudate nucleus synaptosomal preparation", "details": "cited from earlier work"}, "[7]": {"tested_on": "nucleus accumbens enkephalins", "details": "administered into the nucleus accumbens; cited from earlier work"}, "mice [8]": {"tested_on": "mice", "experiment": "Alcohol preference in mice (acceptance and 14 day preference test)", "type": "in vivo", "details": "d-phenylalanine 500 mg/kg/day 18 days, hydrocinnamic acid 25 micrograms icv"}, "enkephalinase": {"tested_on": "enkephalinase", "details": "cited from earlier work; for plasma EKA / CSF EKA: human sufferers"}, "rats [9]": {"tested_on": "rats", "details": "injections in rats; cited from earlier work"}, "[10]": {"details": "250 mg/kg, reversed by naloxone; cited from earlier work"}, "cats": {"tested_on": "cats", "details": "peptide 0.35 mg/kg and D-phenylalanine 10 mg/kg; cited from earlier work"}, "rats [11]": {"tested_on": "rats", "details": "morphine 5 mg/kg, D-phenylalanine 100 mg/kg; similar degree; cited from earlier work"}, "mice [12]": {"tested_on": "mice", "details": "cited from earlier work"}, "[13]": {"details": "in vivo; cited from earlier work"}, "patients with CRPS1": {"tested_on": "patients with CRPS1", "details": "3 of 5 patients; unchanged in the other 2; cited from earlier work"}, "rats [14]": {"tested_on": "rats", "details": "naloxone 0.1 mg/kg; species not stated; cited from earlier work"}, "[15]": {"tested_on": "SH-SY5Y human neuroblastoma cells", "details": "cited from earlier work"}, "methadone patients": {"tested_on": "methadone patients", "experiment": "Compliance with Trexan after rapid detoxification of methadone patients", "type": "in vivo, human", "details": "P<0.0001", "from_the_text": "It may also be interesting too further test this hypothesis with the sublingual combination of the partial opiate mu receptor agonist buprenorphrine."}, "[16]": {"tested_on": "intracranial self-stimulation", "details": "nucleus accumbens microinjections; cited from earlier work"}, "CYP2D6": {"target": "T1, CYP2D6 (Homo sapiens, UniProt P10635)", "T1 construct": "host or cells: patients on methadone (in vivo)", "T1 sequence (P10635 whole entry)": "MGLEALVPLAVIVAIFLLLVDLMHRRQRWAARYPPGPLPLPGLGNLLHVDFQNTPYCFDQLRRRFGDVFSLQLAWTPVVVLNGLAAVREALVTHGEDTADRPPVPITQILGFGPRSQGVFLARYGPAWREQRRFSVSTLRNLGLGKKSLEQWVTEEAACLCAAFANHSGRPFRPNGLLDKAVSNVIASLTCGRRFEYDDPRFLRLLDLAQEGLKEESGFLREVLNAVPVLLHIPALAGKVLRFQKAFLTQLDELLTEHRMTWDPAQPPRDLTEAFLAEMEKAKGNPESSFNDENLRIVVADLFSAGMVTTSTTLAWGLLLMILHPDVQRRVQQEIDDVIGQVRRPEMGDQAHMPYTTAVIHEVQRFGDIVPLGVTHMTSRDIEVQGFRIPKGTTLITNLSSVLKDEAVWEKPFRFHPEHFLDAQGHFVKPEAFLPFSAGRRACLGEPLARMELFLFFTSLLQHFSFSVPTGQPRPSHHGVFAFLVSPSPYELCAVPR", "details": "extensive but not poor metabolizers of debrisoquine/sparteine; cited from earlier work"}, "[17]": {"tested_on": "brain dopamine and serotonin flux", "details": "intravenously, cited from earlier work"}, "Over-Eating [18]": {"tested_on": "Over-Eating", "details": "cited from earlier work"}, "obese women": {"tested_on": "obese women", "details": "cited from earlier work"}, "[19]": {"tested_on": "obese subjects genotyped for DRD2", "experiment": "Chromium picolinate body composition as a function of DRD2 genotype", "type": "in vivo, human", "details": "subjects possessing a DRD2 A1 allele", "description": "A Case Study: Chromium and Dopamine Genes. The inventors embarked on a study with chromium picolinate to test out the principles of nutrigenomics. In this study they genotyped obese subjects for the dopamine D2 receptors gene (DRD2). The subjects were assessed for scale weight and for percent body fat. The subjects were divided into matched placebo and chromium picolinate (CrP) groups. […] Moreover, the inventors propose for the first time that mixed effects now observed with CrP administration in terms of body composition, may be resolved by typing the patient via DRD2 genotyping prior to treatment with chromium salts."}, "Over-Eating [20]": {"tested_on": "Over-Eating", "details": "400 mcg, cited from earlier work"}, "Over-Eating [21]": {"tested_on": "Over-Eating", "details": "after six months, p < 0.001 between groups; cited from earlier work"}, "[22]": {"details": "exercise training combined with CrP supplementation"}}, "note": "Where two headings read alike, the source gives them in different places. Bridge positions count the residues as written; N and C are the ends. Square brackets hold non-standard residues; d marks the D form. Peptide text beside a SMILES is read from it. * marks the point of attachment. Ileψ(thiazoline)Cys = CC[C@H](C)[C@H](N)C1=N[C@H](C(=O)*)CS1; dOrn = NCCC[C@@H](N)C(=O)O"}
{"compound": "NC(Cc1ccccc1)C(=O)O", "note": "(racemic) [DL-phenylalanine (DLPA), DL-phenylalanine]", "values": [{"measurement": "pain relief in patients receiving opiates", "setting": "[1]", "value": "potentiate"}]}
{"compound": "CC(C(=O)O)c1cccc(C(=O)c2ccccc2)c1", "note": "(racemic) [Ketoprofen]", "values": [{"measurement": "concentrations in plasma", "setting": "[2]", "value": "no detectable concentrations"}, {"measurement": "partition into n-octanol", "setting": "[3]", "value": "improves"}, {"measurement": "paw edema by carrageenin", "setting": "paw edema by carrageenin", "value": "markedly inhibited"}]}
{"compound": "CC12CCC(CC1)C(C)(C)O2", "note": "[1,8-cineole]", "values": [{"measurement": "Plasma concentrations of KPF with addition of the enhancer to gel ointment", "setting": "rat skin", "value": "no significant enhancing effect"}]}
{"compound": "CC1CCCC(C)C1=O", "note": "(centres unmarked) [2,6-dimethyl]", "values": [{"measurement": "percutaneous absorption of ketoprofen and indomethacin from gel ointments", "setting": "[4]", "value": "significantly lower"}]}
{"compound": "CCCCCCCCC1CCCCC1=O", "note": "(centres unmarked) [2-n-octylcyclohexanone]", "values": [{"measurement": "percutaneous absorption of ketoprofen and indomethacin from gel ointments", "setting": "[4]", "value": "Pronounced effects"}]}
{"compound": "CC(C)(C)C1CCCCC1=O", "note": "(centres unmarked) [2-tert-butylcyclohexanone]", "values": [{"measurement": "percutaneous absorption of ketoprofen and indomethacin from gel ointments", "setting": "[4]", "value": "markedly enhanced"}]}
{"compound": "CC(C)(C)C1CCC(=O)CC1", "note": "[4-tert-butylcyclohexanone]", "values": [{"measurement": "percutaneous absorption of ketoprofen and indomethacin from gel ointments", "setting": "[4]", "value": "significantly lower"}]}
{"compound": "N[C@@H](Cc1c[nH]c2ccc(O)cc12)C(=O)O", "note": "[5-HTP, 5-hydroxy-1-tryptophan]", "values": [{"measurement": "5-HT in dialysates", "setting": "[5]", "value": "immediate increase"}]}
{"compound": "CCn1cc(C(=O)O)c(=O)c2ccc(Cc3ccccc3)nc21", "note": "[Amfoelic acid]", "values": [{"measurement": "release of dopamine formed from 14C-phenylalanine", "setting": "[6]", "value": "net release"}]}
{"compound": "CC(N)Cc1ccccc1", "note": "(centres unmarked) [Amphetamine]", "values": [{"measurement": "release of dopamine formed from 14C-phenylalanine", "setting": "[6]", "value": "increased"}]}
{"compound": "CN1[C@@H]2CC[C@H]1C[C@@H](OC(c1ccccc1)c1ccccc1)C2", "note": "[Cogentin]", "values": [{"measurement": "release of dopamine formed from 14C-phenylalanine", "setting": "[6]", "value": "increased"}]}
{"compound": "N[C@H](Cc1ccccc1)C(=O)O", "note": "[D-phenylalanine]", "values": [{"measurement": "antinociception induced by intra-periaqueductal gray injection of morphine", "setting": "[7]", "value": "potentiated"}, {"measurement": "alcohol preference", "setting": "mice [8]", "value": "significantly reduced"}, {"measurement": "plasma EKA", "setting": "enkephalinase", "value": "decreased"}, {"measurement": "CWS analgesia and morphine analgesia", "setting": "rats [9]", "value": "decrease CWS analgesia while increasing morphine analgesia"}, {"measurement": "analgesia", "setting": "[10]", "value": "elicits analgesia"}, {"measurement": "analgesia on coadministration with peptide IKB-901", "setting": "cats", "value": "enhances analgesia"}, {"measurement": "pain reaction thresholds", "setting": "rats [11]", "value": "increase"}, {"measurement": "analgesia", "setting": "mice [12]", "value": "long-lasting, naloxone-reversible analgesia"}, {"measurement": "analgesia", "setting": "[13]", "value": "naloxone reversible analgesia"}]}
{"compound": "O=[N+]([O-])O[C@H]1CO[C@H]2[C@@H]1OC[C@H]2O[N+](=O)[O-]", "note": "[ISDN, isosorbide dinitrate]", "values": [{"measurement": "Visual Analog Scale pain", "setting": "patients with CRPS1", "value": "declined"}]}
{"compound": "C=CCN1CC[C@]23c4c5ccc(O)c4O[C@H]2C(=O)CC[C@@]3(O)[C@H]1C5", "note": "[Naloxone]", "values": [{"measurement": "antinociception induced by intra-periaqueductal gray injection of morphine", "setting": "[7]", "value": "attenuated"}, {"measurement": "analgetic effect of peptide IKB-901", "setting": "rats [14]", "value": "prevents"}]}
{"compound": "OC[C@H]1O[C@@H](OCCc2ccc(O)cc2)[C@H](O)[C@@H](O)[C@@H]1O", "note": "[Salidroside]", "values": [{"measurement": "H2O2-induced loss of mitochondrial membrane potential and elevation of intracellular calcium level", "setting": "[15]; SH-SY5Y cells", "value": "dose-dependently restored"}, {"measurement": "antioxidant property", "setting": "[15]", "value": "potent"}]}
{"compound": "Cl.O=C1CC[C@@]2(O)[C@H]3Cc4ccc(O)c5c4[C@@]2(CCN3CC2CC2)[C@H]1O5", "note": "[Trexan®]", "values": [{"measurement": "average number of days of compliance", "setting": "methadone patients", "value": 37, "unit": "days"}]}
{"compound": "CC[C@H](C)[C@H](N)C1=N[C@H](C(=O)N[C@@H](CC(C)C)C(=O)N[C@H](CCC(=O)O)C(=O)N[C@H](C(=O)N[C@H]2CCCCNC(=O)[C@H](CC(N)=O)NC(=O)[C@@H](CC(=O)O)NC(=O)[C@H](Cc3cnc[nH]3)NC(=O)[C@@H](Cc3ccccc3)NC(=O)[C@H]([C@@H](C)CC)NC(=O)[C@@H](CCCN)NC2=O)[C@@H](C)CC)CS1", "note": "[bacitracin] ({Ileψ(thiazoline)Cys}-L[dE]IK[dOrn]I[dF]H[dD]N; lactam 4-C)", "values": [{"measurement": "analgesia", "setting": "mice [12]", "value": "long-lasting, naloxone-reversible analgesia"}]}
{"compound": "C[C@H](CS)C(=O)N1CCC[C@H]1C(=O)O", "note": "[captopril]", "values": [{"measurement": "CSF EKA", "setting": "enkephalinase", "value": "decreased"}]}
{"compound": "O=C(O)Cc1ccccc1Nc1c(Cl)cccc1Cl", "note": "[diclofenac sodium]", "values": [{"measurement": "paw edema by carrageenin", "setting": "paw edema by carrageenin", "value": "markedly inhibited"}]}
{"compound": "O=C(O)CCc1ccccc1", "note": "[hydrocinnamic acid]", "values": [{"measurement": "alcohol preference", "setting": "mice [8]", "value": "significantly reduced"}]}
{"compound": "COc1ccc2c(c1)c(CC(=O)O)c(C)n2C(=O)c1ccc(Cl)cc1", "note": "[indomethacin]", "values": [{"measurement": "paw edema by carrageenin", "setting": "paw edema by carrageenin", "value": "markedly inhibited"}]}
{"compound": "C[C@H](NC(=O)[C@@H](CC(=O)NO)Cc1ccccc1)C(=O)O", "note": "[kelatrophan]", "values": [{"measurement": "intracranial self-stimulation", "setting": "[16]", "value": "reduced"}]}
{"compound": "CC(C)[C@@H]1CC[C@@H](C)C[C@H]1O", "note": "[l-menthol]", "values": [{"measurement": "Plasma concentrations of KPF with addition of the enhancer to gel ointment", "setting": "rat skin", "value": "no significant enhancing effect"}]}
{"compound": "CN1CC[C@]23c4c5ccc(O)c4O[C@H]2[C@@H](O)C=C[C@H]3[C@H]1C5", "note": "[morphine]", "values": [{"measurement": "pain reaction thresholds", "setting": "rats [11]", "value": "increase"}]}
{"compound": "Fc1ccc([C@@H]2CCNC[C@H]2COc2ccc3c(c2)OCO3)cc1", "note": "[paroxetine]", "values": [{"measurement": "steady-state plasma concentrations of (R)-methadone", "setting": "CYP2D6", "value": "increases"}]}
{"compound": "COc1ccc(C[C@H](N)C(=O)N[C@H]2[C@@H](O)[C@H](n3cnc4c(N(C)C)ncnc43)O[C@@H]2CO)cc1", "note": "[puromycin]", "values": [{"measurement": "analgesia", "setting": "mice [12]", "value": "long-lasting, naloxone-reversible analgesia"}]}
{"compound": "CC(C)CC(N(C)C)C1(c2ccc(Cl)cc2)CCC1", "note": "(centres unmarked) [sibutramine]", "values": [{"measurement": "serotonin and dopamine concentrations in the striatal and hypothalamic brain regions", "setting": "[17]; higher doses", "value": "increased"}, {"measurement": "serotonin and dopamine concentrations in dialysates", "setting": "[17]; low doses", "value": "no effect"}]}
{"compound": "O=C(O)CNC(=O)C(CS)Cc1ccccc1", "note": "(centres unmarked) [thiorphan]", "values": [{"measurement": "CSF EKA", "setting": "enkephalinase", "value": "decreased"}, {"measurement": "plasma EKA", "setting": "enkephalinase", "value": "decreased"}, {"measurement": "potency as enkephalinase inhibitor among the three drugs", "setting": "enkephalinase; plasma and CSF", "value": "most potent"}]}
{"compound": "Chromium Picolinate", "values": [{"measurement": "body composition, body fat, nonfat mass", "setting": "Over-Eating [18]; 00 mcg or 400 mcg, two double-blind placebo controlled studies", "value": "body composition improvement, loss of body fat, gain in nonfat mass"}, {"measurement": "changes in Body Mass composition indicies compared with placebo", "setting": "Over-Eating [18]; 200 and 400 mcg, 72 days", "value": "about significant"}, {"measurement": "weight change", "setting": "obese women; CrP supplementation alone, 63 days", "value": "gain, while"}, {"measurement": "insulin response to an oral glucose load", "setting": "obese women; [22]", "value": "lowered"}, {"measurement": "weight change", "setting": "obese women; [22]", "value": "loss"}, {"measurement": "any parameter of weight and body fat change", "setting": "[19]", "value": "no significance"}, {"measurement": "weight (p < 0.001) and body fat (p < 0.004) lost compared with placebo", "setting": "Over-Eating [20]; 90 days", "value": "significantly more"}, {"measurement": "reduction in body fat", "setting": "Over-Eating [20]; p < 0.001", "value": "greater reduction"}, {"measurement": "body composition", "setting": "Over-Eating [20]; p < 0.004", "value": "improve body"}, {"measurement": "lean body mass", "setting": "Over-Eating [21]", "value": "an increase in"}]}
